Consider one compound from patent publication US8470859B2, “Iminopyridine derivative and use thereof” (Takeda Pharmaceutical Company Limited, priority 2006, dated 2013).

For experiment [1], the system named is isolated bladder muscle of BOO model rat. Nature of the experiment: Effect of various drugs on α1 receptor stimulation-induced contraction of isolated bladder muscle of bladder outlet obstruction (BOO) model rat. The following applies: phenylephrine 3 μmol/L. As to the method: Effect of Various Drugs on α1 Receptor Stimulation-Induced Contraction of Isolated Bladder Muscle of Bladder Outlet Obstruction (BOO) Model Rat
(§1) • (i) Seven-week-old male Wistar rats (CLEA Japan, Inc., Tokyo) were used. BOO rat was prepared according to publications (Hashimoto T, Nagabukuro H and Doi T: Effects of the selective acetylcholinesterase inhibitor TAK-802 on the voiding behavior and bladder mass increase in rats with partial bladder outlet obstruction. J Urol. 174: 1137-41., 2005.). After pentobarbital (50 mg/kg i.p., Dainippon Sumitomo Pharma Co., Ltd., Osaka) anesthesia, a lower middle abdominal incision was made to expose the bladder. The prostate was detached, the urethra was ligated along with a glass rod having an outer diameter of 1.2 mm, and the glass rod was removed to prepare partial obstruction of the urethra. After the surgery, the abdomen was sutured, and penicillin (2000 IU/rat, penicillin G potassium, MEIJI SEIKA KAISHA, LTD., Tokyo) was subcutaneously administered. An animal after 2 to 4 weeks from obstruction surgery was used. • (ii) Contractile Responses of Isolated Bladder Muscle (1) Preparation of Bladder Muscle Specimen
BOO model rat was sacrificed by decaptation, and the bladder was isolated. Muscle strips (length 7-10 mm, width about 3 mm) in the longitudinal direction were prepared from the bladder except bladder trigone (4-6 specimen from each bladder).
(§2) The prepared bladder muscle specimens were hung in a Magnus bath aerated with 95% O2-5% CO2 gas and filled with modified Krebs solution. The contraction tension was measured by an isometric strain transducer (TSD125C, Biopac systems, Santa Barbara, Calif., USA) and recorded in the hard disc of PC (ThinkCentre, IBM, USA) via an amplifier (DA100C, Biopac systems) and a multichannel data analysis apparatus (MP100A-CE, Biopac systems). For uptaking the data, a dedicated software (Acqknowledge 3.8.1., Biopac systems) was used and the sampling interval was set to 0.2 second (5 Hz). The specimens were hung with a load of about 1 g and, after an equilibration time of 1 hr or longer, the following experiment was performed.
The specimens were treated with phenylephrine (3 μmol/L) to induce contraction. After the contractile response was stabilized (>20 min), the specimens were cumulatively treated 3 times with a drug at a 10-fold common ratio and 30 min intervals, and the variation in the tension was observed.
The variation in the tension due to α1 receptor stimulation was evaluated by the two methods shown below [average method and standard deviation (Stddev) method].
The average tension for one minute was measured immediately before phenylephrine treatment and after the contraction was stabilized after the treatment (immediately before completion of about 20 min observation time), and the difference was taken as 100%. The average tension for one minute was measured immediately before completion of observation time (30 min) after treatment with a drug at each concentration, and the inhibition rate of the drug at each concentration was calculated. In the vehicle treatment group, the variation rate of phenylephrine-induced contraction was calculated every time the specimens were treated 3 times with lo the solvent, and the inhibition rate of the drug at each concentration was adjusted based on the variation rate of the corresponding vehicle treatment group. The concentration (IC50) necessary for inhibiting the average tension by 50% by preclinical package (SAS Institute Japan, Ver. 5.0) was calculated based on the inhibition rate at each concentration.
The standard deviation was measured immediately before phenylephrine treatment and for 5 min after the contraction was stabilized after treatment (immediately before completion of the about 20 min observation time) and the difference was taken as 100%. […]

For experiment [2] the test system is unchanged. As to the kind of experiment: Effect of SNAP-8719 on α1 receptor stimulation-induced contraction of isolated bladder muscle of bladder outlet obstruction (BOO) model rat. The following applies: phenylephrine 3 μmol/L, average value ± standard error, N=5-8. As to the method:
Effect of SNAP-8719 on α1 Receptor Stimulation-Induced Contraction of Isolated Bladder Muscle of Bladder Outlet Obstruction (BOO) Model Rat
as §1
BOO model rat was sacrificed by decaptation, and the bladder was isolated. Muscle strips (length 7-10 mm in the longitudinal direction, width about 3 mm) were prepared from the bladder except bladder trigone (4-6 specimen from each bladder).
as §2
The specimens were treated with phenylephrine (3 μmol/L) to induce contraction.
The standard deviation was measured for 5 minutes immediately before phenylephrine treatment and for 5 minutes after the contraction was stabilized after treatment (immediately before completion of the about 20 min observation time) and the difference was taken as 100%. The standard deviation was measured for 5 minutes immediately before completion of observation time (30 min) after the SNAP-8719 treatment, and the inhibition rate was calculated. In the vehicle treatment group, the variation rate of phenylephrine-induced contraction was calculated every time the specimens were repeatedly treated with the vehicle, and the inhibition rate of SNAP-8719 was adjusted based on the variation rate of the corresponding vehicle treatment group. • (iii) Action of SNAP-8719 on α1 Receptor Stimulation-Induced Contraction of Isolated Bladder Muscle of BOO Model Rat
After the phenylephrine-induced contraction was stabilized, the specimens were treated with the vehicle 0-4 times at 30 min intervals, treated with SNAP-8719 (1 μmol/L), and the variation in the contraction tension in 30 min was observed. […] Therefore, the evaluation by cumulative treatment with a drug was performed for up to 3 concentrations at 30 min intervals.

`C[C@H](CN1CCN(c2cc(F)c(F)cc2F)CC1)N1C(=O)CC2(CCCC2)CC1=O` [SNAP-8719]: in experiment [1], the “effect on the rhythmic contractile response induced by phenylephrine (average method and Stddev method), in words” value is recorded as “inhibited”. Moreover, the IC50 in experiment [1] (concentration inhibiting the average tension by 50%, cumulative treatment, 3 concentrations, 30 min intervals, read-out: Inhibitory effect on phenylephrine-induced contraction IC50 (average method)) was 360 nM. Besides, the “Inhibitory effect on phenylephrine-induced contraction IC30 (stddev method)” value in experiment [1] (concentration inhibiting the sustained, rhythmic contractile responses by 30%, cumulative treatment, 3 concentrations, 30 min intervals) was determined as 180 nM. The “inhibition rate of phenylephrine-induced contraction (standard deviation method, vehicle adjusted value)” value in experiment [2] (SNAP-8719 1 μmol/L after treatment with vehicle 0 times) was found to be 51.2±12.4%; in experiment [2] (SNAP-8719 1 μmol/L after treatment with vehicle 1 time at 30 min intervals), 47.4±9.1%; in experiment [2] (SNAP-8719 1 μmol/L after treatment with vehicle 2 times at 30 min intervals), 66.6±8.7%; in experiment [2] (SNAP-8719 1 μmol/L after treatment with vehicle 3 times at 30 min intervals) it was 36.3±9.4%; in experiment [2] (SNAP-8719 1 μmol/L after treatment with vehicle 4 times at 30 min intervals), 8.7±32.3%.

As usually defined, the IC50 is the point on the concentration scale where inhibition reaches its midpoint.
